The nature of test [1]: Binding of fluorescein-labeled peptides to hydroxyapatite nanocrystals (Langmuir isotherm). The settings on record: fluorescein-labeled peptide 0-100 μM, 0.3 mg hydroxyapatite, ten minutes, Langmuir fit. How it is done:
FIG. 1: Binding affinities of DSS and DSS variant peptides for hydroxyapatite and tooth surfaces. A-C. Fluorescein-labeled peptides at concentrations ranging from 0-100 μM were incubated with 0.3 mg of hydroxyapatite nanocrystals (specific surface area=100 m^2/g) for ten minutes, followed by removal of the hydroxyapatite by centrifugation. The amount of peptide in the mixture before and after hydroxyapatite removal was determined by Abs480. Isotherms were plotted and fit to the Langmuir equation to extract values for KA, a constant reflecting the affinity of the peptide for the hydroxyapatite surface. D. Sagitally sectioned human teeth were incubated with 12.5 μM 5(6) carboxyfluorescein-labeled 6DSS peptide for ten minutes, followed by rinsing. Peptide binding to tooth surfaces was visualized by Confocal Laser Scanning Microscopy (CLSM) using blue laser illumination (λA=488 nm) and a FITC emission filter. Left side, light colored region: dentin. Right side, dark colored region: enamel.
Four DSS peptides containing two (2DSS, SEQ ID NO:12), four (4DSS, SEQ ID NO:13), six (6DSS, SEQ ID NO:14), or eight(8DSS, SEQ ID NO:15) Asp-Ser-Ser (DSS) repeats were generated. Peptides were labeled with fluorescein, and various concentrations of the labeled peptides (0-100 μM) were mixed with a fixed amount (0.3 mg) of hydroxyapatite nanocrystals having a specific surface area of 100 m^2/g (Berkeley Advanced Biomaterials, Inc.). Samples were incubated for ten minutes, followed by removal of the hydroxyapatite by centrifugation. The amount of peptide in the mixture was measured both before and after hydroxyapatite removal by spectroscopic absorbance at 480 nm (the peak absorbance of the fluorescein label). The amount of peptide bound was calculated by comparing the ratio of the final (Af) and initial (Ai) absorbances to the initial concentration (P0) [Pbound=[…]]. Plots were generated illustrating the amount of peptide bound per m^2 of hydroxyapatite surface area versus concentration of unbound peptide at equilibrium. The resulting isotherms were fit to the Langmuir isotherm (x/m=(KANMaxCeq)/(1+KACeq)) (Calis 1995), which describes the binding activity of a molecule in terms of a combination of binding affinity (KA) and avidity (NMax). KA represents the affinity constant of the peptide for the hydroxyapatite surface. In this equation, x/m represents the molar amount of peptide bound per unit of hydroxyapatite surface area, NMax represents the maximum surface concentration (mol/m^2), and Ceq represents the molar concentration of unbound peptide at equilibrium. The Langmuir isotherm describes the binding of molecules to surfaces with the conditions that 1) all binding sites have the same affinity for the peptide, and 2) the peptide will form a monolayer on the surface but cannot accumulate to higher levels. The excellent fit of the Langmuir isotherm to the experimental data validates these conditions, and these affinity constants were used for comparisons between peptides.

Test [2] in a line: Accumulation of calcium phosphate by immobilized peptide on streptavidin beads. To be noted: biotin-conjugated peptide on beads, PBS+1 mM CaCl2+1 mM NaHPO4, twelve days. How it is done: FIG. 3: Interaction of immobilized 8DSS peptide with CaHPO4. Streptavidin-coated polystyrene beads were incubated with biotin-conjugated 8DSS (A and C) or unconjugated biotin (B) and (D). Beads were washed and incubated in a solution of PBS+1 mM CaCl2+1 mM NaHPO4 for twelve days prior to imaging. A. Brightfield micrographs of aggregates of amorphous calcium phosphate that accumulated around DSS-coated beads. All calcium phosphate aggregates of significant size were associated with one or more beads. B. Brightfield image of representative biotin-blocked beads (no DSS peptide). No significant amount of precipitate was associated with these beads. C. Phase-contrast micrograph of a DSS-coated bead with a more ordered accretion of calcium phosphate around its exterior (note the spherical center of the object). These objects were not seen in control samples (biotin-blocked, no DSS peptide), as illustrated in (D). Scale Bars=4 μm. Streptavidin-coated polystyrene beads with an average diameter of 4 μm (Spherotech P.L.C.) were incubated with either biotin-conjugated 8DSS peptide or unconjugated biotin. Beads were washed with PBS to remove unbound peptide (or unbound biotin, in the case of the control beads) and incubated in a solution of PBS+1 mM CaCl2+1 mM NaHPO4 for twelve days prior to imaging. […] All calcium phosphate aggregates of significant size were associated with one or more beads. […]

A short description of test [3]: Remineralization of demineralized dentin surfaces with Quell Desensitizer (SEM). Also noted: species or system human. The settings on record: 12.5 μM peptide one hour, then Quell Desensitizer 15 minutes. As for the experimental part:
FIG. 4: Remineralization of tooth surfaces with DSS peptides. Extracted human teeth were sagitally sectioned and demineralized with 19% EDTA gel for 1 hour, followed by immersion in deionized water and ultrasonication to remove excess debris. Samples were treated as indicated, then imaged by Scanning Electron Microscopy. Scale bars=50 μm. A. Demineralized control samples. B. Treated with 8DSS for 1 hour, rinsed, and remineralized using Quell Desensitizer. C. Treated with buffer only, remineralized using Quell Desensitizer. D. No treatment, remineralized using Quell Desensitizer. Extracted human teeth were sagitally sectioned (Accutom-50, CA-231 diamond blade) and demineralized with 19% EthyleneDiaminoTetraAcetic acid (EDTA) gel for one hour, followed by immersion in deionized water and ultrasonication to remove excess debris. Samples were treated with 12.5 μM 8DSS peptide in 50 mM HEPES buffer (pH 7.0), buffer only (no peptide), or left untreated. After one hour, samples were remineralized for 15 minutes with Quell Desensitizer (Pentron technologies, LLC), a remineralization solution consisting of aqueous solutions of calcium chloride and potassium phosphate. Samples were rinsed thoroughly prior to imaging by scanning electron microscopy (SEM).

A short description of test [4]: Preferential binding to carious lesions in teeth (CLSM). Also noted: species or system human. The settings on record: labeled peptide, settings optimized per sample. How it is done: FIG. 9: Fluorescence micrographs showing specific binding of DSS peptides and variants to carious lesions in teeth. Adult human teeth were exposed to 12.5 uM 5(6)-carboxyfluorescein-labeled peptide without demineralization, washed extensively, and imaged by CLSM. Microscope and camera settings were optimized separately for each sample. […] White traces on the right side of each panel identify the position of the tooth surface, while arrows indicate the position of the stained lesion.
Sections of human teeth containing obvious carious lesions, which consist of demineralized enamel, were polished and exposed to 5(6)-carboxyfluorescein-labeled DSS peptides and variants using the protocol described in Example 2. The sections were washed extensively and imaged by CLSM using blue laser illumination (λ=488 nm) and a FITC emission filter, with microscope and camera settings adjusted for each sample to optimize the signal detected from each peptide. The images were examined to identify the relative levels of peptide binding in healthy versus carious tissue. […] Given their ability to remineralize at sites of enamel degradation (Example 6), they can also be used to initiate remineralization at sites of enamel degradation such as caries or injury sites without causing inappropriate nucleation on healthy tissue surfaces.

As for “8DSS: peptide containing eight Asp-Ser-Ser (DSS) repeats, SEQ ID NO:15 (DSSDSSDSSDSSDSSDSSDSSDSS; calcium binding peptide containing eight DSS repeats, 8DSS)”, in test [1], the “KA, affinity constant of the peptide for the hydroxyapatite surface” value is 300,000 M^−1. The “Calcium phosphate accumulation around peptide-coated beads” value in test [2] was “incorporated into large aggregates of precipitated amorphous calcium phosphate”. In addition, in test [3], the “Mineral precipitate accumulation on demineralized dentin” value is reported as “accumulated a continuous layer of calcium phosphate precipitate, fully occluding the dentinal tubules”. For the same substance, in test [4], the “Specificity of binding to carious lesions versus surrounding healthy enamel” value is given as “highly specific binding to carious lesions” and the “Strength of staining of carious lesions” value is reported as “exceptionally strong staining of carious lesions”.

For the origin of these results see patent US20090098050A1, “CALCIUM BINDING PEPTIDES” (THE REGENTS OF THE UNVERSITY OF CALIFORNIA, priority 2005, published 2009).
